Assays:
GSK 3α = GSK 3α (Homo sapiens (Human), UniProt P49840); assay: GSK 3α enzyme inhibition (Method 2), Z-LYTE FRET; assay type: biochemical; details: read-out: IC50 Values for Enzyme Inhibition GSK3α
Method: The enzyme inhibitory activities of compounds disclosed herein are determined by FRET using synthetic peptides labelled with both donor and acceptor fluorophores (Z-LYTE, Invitrogen Ltd., Paisley, UK).
The following two assay variants can be used for determination of GSK 3α inhibition.
The inhibitory activities of compounds of the invention against the GSK 3α enzyme isoform (Invitrogen), are evaluated by determining the level of activation/phosphorylation of the target peptide. The GSK3-α protein (500 ng/mL, 2.5 μL) is mixed with the test compound (2.5 μL at either 4 μg/mL, 0.4 μg/mL, 0.04 μg/mL, or 0.004 μg/mL) for 2 hr at RT. The FRET peptide (8 μM, 2.5 μL), which is a phosphorylation target for GSK3α, and ATP (40 μM, 2.5 μL) are then added to the enzyme/compound mixture and the resulting mixture incubated for 1 hr. Development reagent (protease, 5 μL) is added for 1 hr prior to detection in a fluorescence microplate reader (Varioskan® Flash, ThermoFisher Scientific).
In all cases, the site-specific protease cleaves non-phosphorylated peptide only and eliminates the FRET signal. Phosphorylation levels of each reaction are calculated using the ratio of coumarin emission (donor) over fluorescein emission (acceptor), for which high ratios indicate high phosphorylation and low ratios indicate low phosphorylation levels.
This method follows the same steps as Method 1 above, but utilises a shorter period of mixing of the test compound (105 minutes instead of 2 hours) with the GSK3-α protein. In addition, the concentrations of test compound employed are either 10 μg/mL, 1 μg/mL, 0.1 μg/mL, or 0.01 μg/mL

mitosis in PBMCs = assay: (g) Cell mitosis assay; assay type: cell-based; details: Homo sapiens, PBMC, 5 μg/mL
Method in brief: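 Healthy-donor PBMCs stimulated with 2% PHA for 48 hr, then exposed to test compounds at varying concentrations for 20 hr; demecolcine (0.1 μg/mL) added 2 hr before collection for metaphase arrest. Cells fixed/permeabilized, stained with anti-phospho-histone 3 and propidium iodide; mitotic cells counted by flow cytometry gating on lymphocytes.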

c-Src = c-Src (Homo sapiens (Human), UniProt P12931); assay: c-Src enzyme inhibition, Z-LYTE FRET; assay type: biochemical
Chain of c-Src (P12931 whole entry, looked up): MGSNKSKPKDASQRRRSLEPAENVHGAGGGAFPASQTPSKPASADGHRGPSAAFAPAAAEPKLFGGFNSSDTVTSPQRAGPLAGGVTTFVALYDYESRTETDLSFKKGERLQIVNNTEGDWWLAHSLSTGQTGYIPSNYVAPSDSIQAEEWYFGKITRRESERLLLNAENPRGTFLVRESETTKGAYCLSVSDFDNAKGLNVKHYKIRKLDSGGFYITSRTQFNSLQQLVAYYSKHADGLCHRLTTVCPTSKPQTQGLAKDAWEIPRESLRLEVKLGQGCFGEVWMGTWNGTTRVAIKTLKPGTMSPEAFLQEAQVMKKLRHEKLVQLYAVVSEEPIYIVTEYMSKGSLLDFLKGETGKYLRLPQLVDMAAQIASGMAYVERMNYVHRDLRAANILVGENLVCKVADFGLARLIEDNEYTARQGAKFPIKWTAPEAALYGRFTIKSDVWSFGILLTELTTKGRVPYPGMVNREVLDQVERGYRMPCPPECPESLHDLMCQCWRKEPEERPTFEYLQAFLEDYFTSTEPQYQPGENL
Method in brief: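 Human Syk and c-Src (enzyme at 2000 or 3000 ng/mL respectively, pre-dilution) preincubated 2 hr at RT with compound at 1, 0.1, 0.01 or 0.001 μg/mL; FRET peptide added with ATP (60 μM Syk, 800 μM c-Src; solution concentrations), 1 hr. Protease development 1 hr; phosphorylation from coumarin/fluorescein emission ratio.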

Syk = Syk (Homo sapiens (Human), UniProt P43405); assay: Syk enzyme inhibition, Z-LYTE FRET; assay type: biochemical
Method in brief: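 Syk or c-Src enzyme (3000 or 2000 ng/mL solutions) was preincubated 2 h at RT with compound solutions at 1, 0.1, 0.01 or 0.001 µg/mL. Z-LYTE FRET peptide (8 µM solution) and ATP (800 µM solution for c-Src, 60 µM for Syk) were then added for 1 h, followed by protease development for 1 h. Phosphorylation was read as the coumarin/fluorescein emission ratio.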

Crohn's patients = details: transient, returning to baseline by week 8; cited from earlier work
[1] = tested on: patients with severe Crohn's disease; details: over 8 weeks; cited from earlier work
[2] = tested on: rheumatoid arthritis patients; details: cited from earlier work

Chain of GSK 3α (P49840 whole entry): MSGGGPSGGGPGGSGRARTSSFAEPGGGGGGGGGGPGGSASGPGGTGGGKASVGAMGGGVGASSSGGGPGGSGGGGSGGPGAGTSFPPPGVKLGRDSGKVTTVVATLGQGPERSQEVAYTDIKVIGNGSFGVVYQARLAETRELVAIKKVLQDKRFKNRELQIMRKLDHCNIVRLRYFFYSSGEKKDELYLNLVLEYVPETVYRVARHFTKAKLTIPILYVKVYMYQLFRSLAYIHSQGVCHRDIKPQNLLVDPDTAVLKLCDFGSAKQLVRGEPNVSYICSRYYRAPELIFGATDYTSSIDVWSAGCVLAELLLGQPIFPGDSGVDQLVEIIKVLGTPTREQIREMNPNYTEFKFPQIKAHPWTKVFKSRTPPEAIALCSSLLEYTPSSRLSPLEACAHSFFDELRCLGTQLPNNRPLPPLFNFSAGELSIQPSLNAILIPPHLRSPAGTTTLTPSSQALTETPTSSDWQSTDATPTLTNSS

Row | Compound | IC50 (GSK 3α) [nM] | inhibition at 5 µg/mL (mitosis in PBMCs) [%] | IC50 (c-Src) [nM] | IC50 (Syk) [nM] | other results
1 | COc1cc(Nc2cc(Oc3ccc(NC(=O)Nc4cc(C(C)(C)C)cc(NS(C)(=O)=O)c4OC)c4ccccc34)ccn2)ccc1C(=O)NCCN1CCN(C)CC1 [17(a), 4-[[4-[[4-[[5-tert-butyl-3-(methanesulfonamido)-2-methoxy-phenyl]carbamoylamino]-1-naphthyl]oxy]-2-pyridyl]amino]-2-methoxy-N-[2-(4-methylpiperazin-1-yl)ethyl]benzamide] | 4000 | 75.6 | 16 | – | –
2 | COc1cc(Nc2cc(Oc3ccc(NC(=O)Nc4cc(C(C)(C)C)cc(NS(C)(=O)=O)c4OC)c4ccccc34)ccn2)ccc1C(=O)NCCCN1CC[S+]([O-])CC1 [17(ag), 4-[[4-[[4-[[5-tert-butyl-3-(methanesulfonamido)-2-methoxy-phenyl]carbamoylamino]-1-naphthyl]oxy]-pyridyl]amino]-2-methoxy-N-[3-(1-oxo-1,4-thiazan-4-yl)propyl]benzamide] | 2740 | 51.8 | 17 | 105 | –
3 | COc1cc(Nc2cc(Oc3ccc(NC(=O)Nc4cc(C(C)(C)C)cc(NS(C)(=O)=O)c4OC)c4ccccc34)ccn2)ccc1C(=O)NCCCN1CCS(=O)(=O)CC1 [17(ah), 4-[[4-[[4-[[5-tert-butyl-3-(methanesulfonamido)-2-methoxy-phenyl]carbamoylamino]-1-naphthyl]oxy]-2-pyridyl]amino]-N-[3-(1,1-dioxo-1,4-thiazinan-4-yl)propyl]-2-methoxy-benzamide] | 9190 | 32.5 | 20 | 57 | –
4 | Cc1ccc(-n2nc(C(C)(C)C)cc2NC(=O)Nc2ccc(OCCN3CCOCC3)c3ccccc23)cc1 [BIRB796] | – | – | – | – | clinical benefit, C-reactive protein levels (Crohn's patients): improvement in C-reactive protein levels
5 | C/C(=N\N=C(N)N)c1cc(NC(=O)CCCCCCCCC(=O)Nc2cc(/C(C)=N/N=C(N)N)cc(/C(C)=N/N=C(N)N)c2)cc(/C(C)=N/N=C(N)N)c1.Cl.Cl.Cl.Cl [CNI-1493] | – | – | – | – | clinical score [1]: significant improvement in clinical score
6 | COc1cc(Nc2ncc(F)c(Nc3ccc4c(n3)N(COP(=O)(O)O)C(=O)C(C)(C)O4)n2)cc(OC)c1OC [Fostamatinib] | – | – | – | – | clinical outcome [2]: improved clinical outcome; serum levels of IL-6 and MMP-3 [2]: reduced serum levels of IL-6 and MMP-3

Source: patent publication US10125100B2, “Kinase inhibitors” (Respivert Limited, priority 2014, dated 2018)
